Experimental data as given in US20110172193A1, “PRO-DRUGS OF (E)-7-(3-(2-AMINO-1-FLUOROETHYLIDENE)PIPERIDIN-1-YL)-1-CYCLOPROPYL-6-FLUORO-8-METHOXY-4-OXO-1,4-DIHYDROQUINOLINE-3-CARBOXYLIC ACID” (priority 2010, published 2011).
Read-outs that look alike come from different tables or passages of the source.

Experiments:
[1] = In vitro bioconversion of pro-drug to parent drug in human blood and plasma; assay type: in vitro ADME; conditions: for Peak Area of pro-drug: 37° C.
Description: Compounds #1, #4, #6, #15, and #16, as well as the parent drug [(E)-7-(3-(2-amino-1-fluoroethylidene)piperidin-1-yl)-1-cyclopropyl-6-fluoro-8-methoxy-4-oxo-1,4-dihydroquinoline-3-carboxylic acid] (the compound of formula (M)) were dissolved to 1 mg/mL, and diluted to 20 ng/mL in fresh, chilled (4° C.) human or mouse whole blood or plasma, or kidney and liver extract (prepared from the respective fresh mouse organs as described below). Compound concentrations were normalized to parent drug content by multiplying by a ratio of the relative molecular weights. Time 0 (minute) samples were prepared by immediately diluting with an equal volume of acetonitrile, vortexing, and transferring the samples to ice. For additional time points, samples were placed in an incubator (Tables 4 and 5), or in a heating block (Tables 6-12) at 37° C. for the indicated time, then immediately vortexed with an equal volume of acetonitrile and placed on ice. Samples were centrifuged and further diluted with an equal volume of water to a final concentration of 25% acetonitrile prior to analysis by HPLC; diluted samples were retained in the cooled (4° C.) HPLC sample injection chamber pending injection.
Representative compounds of the present invention and the parent compound were analyzed by reversed-phase HPLC using an Agilent 1100 system. Samples were injected onto a Zorbax SB-C18 column (3.5 μM, 4.6×150 mm) with a guard cartridge, and developed on a gradient of 15% aqueous acetonitrile in 0.1% trifluoroacetic acid to 85% aqueous acetonitrile in 0.1% trifluoroacetic acid over 10 minutes. The solvent flow rate was 1 mL/min, and the column temperature was 40° C. Compound and parent peak identification was by diode array detection, monitored at 300 nm Conversion of the compounds (prodrugs) to parent drug was estimated by peak areas (A300 nm, mAU) of the respective agents.
For studies with Compounds #1, #4 and #6 (with results as listed in Tables 8, 9 and 10), fresh human whole blood and plasma samples were purchased from BioChemed Services, shipped in Styrofoam coolers maintained with frozen cold packs, and used within 48 hours of receipt. For studies with Compounds #15 and #16 (with results as listed in Tables 11 and 12), blood was drawn from volunteers and whole blood samples and isolated plasma prepared and immediately placed on ice. Whole blood and plasma samples were maintained at 4° C. and used within approximately 30 hours.

[2] = tested on: Staphylococcus aureus (OC8525), a methicillin-resistant strain (MRSA); assay: In vivo efficacy in a mouse systemic infection model; conditions: for ED50: Staphylococcus aureus, 72 h, Swiss Webster mice infected i.p. with MRSA, 3 day survival, normalized to parent content; for % Survival: i.v., single dose level, mice
Description: Female Swiss Webster mice weighing between 20-25 g were infected intraperitoneally with approximately 5×10^5 colony forming units (CFU) Staphylococcus aureus (OC8525), a methicillin-resistant strain (MRSA), in 7% mucin. One hour later, the animals were given the test compound intravenously or orally in a dose volume of 0.2 mL. Each animal test group consisted of eight animals. The test compounds were prepared immediately before dosing in 5% dextrose in water (D5W) and diluted further in D5W for i.v. and p.o. administration. The mice were observed over a three day period and ED50 values were calculated from the resulting % survival curves (see Table 13, below). The measured ED50 values were normalized to the content of (E)-7-(3-(2-amino-1-fluoroethylidene)piperidin-1-yl)-1-cyclopropyl-6-fluoro-8-methoxy-4-oxo-1,4-dihydroquinoline-3-carboxylic acid. For some compounds, in vivo efficacy was determined by testing a group of eight mice at a single dose level only. In these cases, the data presented in Table 13, below are reported as percent survival at the designated dose.

[3] = In vitro bioconversion of pro-drug to parent drug in mouse blood, plasma, liver and kidney extract; assay type: in vitro ADME; conditions: mouse whole blood, liver/kidney extracts, plasma
Description: Compound concentrations were normalized to parent drug content by multiplying by a ratio of the relative molecular weights. Time 0 (minute) samples were prepared by immediately diluting with an equal volume of acetonitrile, vortexing, and transferring the samples to ice. […] Representative compounds of the present invention and the parent compound were analyzed by reversed-phase HPLC using an Agilent 1100 system. […] The solvent flow rate was 1 mL/min, and the column temperature was 40° C. Compound and parent peak identification was by diode array detection, monitored at 300 nm Conversion of the compounds (prodrugs) to parent drug was estimated by peak areas (A300 nm, mAU) of the respective agents. Mouse whole blood and plasma were collected from Swiss Webster mice, and stored at 4° C. until use (within 48 hours). […] For these experiments, fresh whole mouse livers or kidneys were homogenized for approximately 30 seconds (Omni-Tip™ disposable homogenizer tip) in 1 mL sterile saline and immediately stored on ice. Crude extracts (non-centrifuged) were incubated with the test compound or parent (20 μg/mL) and processed as described above.

[4] = Clarity of test compound solutions at […] (aqueous solubility); conditions: for solubility at 24 h: pH 4, aqueous buffer; for Aqueous Solubility pH~7 (visual clarity): […] active-form equivalents, pH 7 (50 mM phosphate), after 24 hours
Description: A 50-mg/mL solution of a compound of formula (I) or a compound of formula (II) in H2O was titrated with 0.1 M NaOH until pH reached 5.7-6.1. Any solid that precipitated was filtered. The remaining solutions or phase-separated oil/H2O mixtures were freeze-dried to produce zwitterions as fluffy solids.
The aqueous solubility of Compounds #14, #15 and #16 were determined by a modified procedure. In these cases, the samples were targeted at a pH of 4 and 7 and were measured exclusively using 100 mM phosphate buffers. For both pH's, measured samples were initially prepared at ˜3 mg/ml and ˜10 mg/ml concentrations and for samples that dissolved rapidly, additional compound was added to the solution until saturated solutions were obtained.

[5] = oral dose 1 h later, read-out: ED50 p.o.
[6] = iv, i.v. dose 1 h later, read-out: ED50 i.v.
[7] = 50 mM citrate buffer, thermodynamic from solid

Structure (SMILES) | ED50 [2, 5] | ED50 [2, 6] | solubility at 24 h [4, 7] | Aqueous Solubility pH~7 (visual clarity) [4] | further results
COc1c(N2CCC/C(=C(\F)CNC(=O)[C@H](C)N)C2)c(F)cc2c(=O)c(C(=O)O)cn(C3CC3)c12.Cl [Compound 4, 7-{3-[2-((2S)-2-Amino-propionylamino)-1-fluoro-ethylidene]-piperidin-1-yl}-1-cyclopropyl-6-fluoro-8-methoxy-4-oxo-1,4-dihydro-quinoline-3-carboxylic acid hydrochloride] | 19.8 mg/kg | 0.7 mg/kg | > 3.3 mg/mL | No | Peak Area of pro-drug ([1]; fresh human blood (purchased), 0.0 min): 401 mAU; Peak Area of pro-drug ([1]; fresh human blood (purchased), 4.0 min): 205 mAU; Peak Area of pro-drug ([1]; fresh human blood (purchased), 6.5 min): 123 mAU; Peak Area of pro-drug ([1]; fresh human blood (purchased), 9.0 min): 79 mAU; Peak Area of pro-drug ([1]; fresh human blood (purchased), 11.5 min): 84 mAU; Peak Area of pro-drug ([1]; fresh human blood (purchased), 16.5 min): 68 mAU; Peak Area of pro-drug ([1]; fresh human plasma (purchased), 0.0 min): 442 mAU; Peak Area of pro-drug ([1]; fresh human plasma (purchased), 5.0 min): 383 mAU; Peak Area of pro-drug ([1]; fresh human plasma (purchased), 15.0 min): 339 mAU; Peak Area of pro-drug ([1]; fresh human plasma (purchased), 30.0 min): 268 mAU; Conversion to the parent compound (summary in words) ([1]; human whole blood and plasma): converted to the parent compound; Conversion to the parent compound (summary in words) [3]: converted to the parent compound
COc1c(N2CCC/C(=C(\F)CNC(=O)[C@H](CC(C)C)NC(=O)[C@H](C)N)C2)c(F)cc2c(=O)c(C(=O)O)cn(C3CC3)c12.Cl [Compound 10, 7-(3-{2-[(2S)-2-((2S)-2-Amino-propionylamino)-4-methyl-pentanoylamino]-1-fluoro-ethylidene}-piperidin-1-yl)-1-cyclopropyl-6-fluoro-8-methoxy-4-oxo-1,4-dihydro-quinoline-3-carboxylic acid hydrochloride] | – | – | < 3.3 mg/mL | No | % Survival ([2]; at 2.4 mg/kg/day): 25% at 2.4 mg/kg/day
CCOC(=O)c1cn(C2CC2)c2c(OC)c(N3CCC/C(=C(\F)CN)C3)c(F)cc2c1=O.Cl [Compound 11, 7-[3-(2-Amino-1-fluoro-ethylidene)-piperidin-1-yl]-1-cyclopropyl-6-fluoro-8-methoxy-4-oxo-1,4-dihydro-quinoline-3-carboxylic acid ethyl ester hydrochloride] | 6.7 mg/kg | 1.2 mg/kg | < 3.3 mg/mL | No | –
COc1c(N2CCC/C(=C(\F)CNC(=O)OCc3oc(=O)oc3C)C2)c(F)cc2c(=O)c(C(=O)O)cn(C3CC3)c12 [Compound 8, 1-Cyclopropyl-6-fluoro-7-{3-[1-fluoro-2-(5-methyl-2-oxo-[1,3]dioxol-4-ylmethoxycarbonylamino)-ethylidene]-piperidin-1-yl}-8-methoxy-4-oxo-1,4-dihydro-quinoline-3-carboxylic acid] | – | – | < 3.3 mg/mL | No | –
COc1c(N2CCC/C(=C(\F)CNC(=O)[C@@H](N)CC(=O)O)C2)c(F)cc2c(=O)c(C(=O)O)cn(C3CC3)c12.Cl [Compound 5, 7-{3-[2-((2S)-2-Amino-3-carboxy-propionylamino)-1-fluoro-ethylidene]-piperidin-1-yl}-1-cyclopropyl-6-fluoro-8-methoxy-4-oxo-1,4-dihydro-quinoline-3-carboxylic acid hydrochloride] | > 15.7 mg/kg | > 3.9 mg/kg | < 3.3 mg/mL | No | –
COc1c(N2CCC/C(=C(\F)CNC(=O)[C@@H](N)CCCCN)C2)c(F)cc2c(=O)c(C(=O)O)cn(C3CC3)c12.Cl.Cl [Compound 9, 1-Cyclopropyl-7-{3-[2-((2S)-2,6-diamino-hexanoylamino)-1-fluoro-ethylidene]-piperidin-1-yl}-6-fluoro-8-methoxy-4-oxo-1,4-dihydro-quinoline-3-carboxylic acid dihydrochloride] | – | – | > 3.3 mg/mL | Yes | % Survival ([2]; at 1.9 mg/kg/day): 25% at 1.9 mg/kg/day
CN[C@@H](C)C(=O)NC/C(F)=C1/CCCN(c2c(F)cc3c(=O)c(C(=O)O)cn(C4CC4)c3c2OC)C1.Cl [Compound 7, 1-Cyclopropyl-6-fluoro-7-{3-[1-fluoro-2-((2S)-2-methylamino-propionylamino)-ethylidene]-piperidin-1-yl}-8-methoxy-4-oxo-1,4-dihydro-quinoline-3-carboxylic acid hydrochloride] | – | – | > 3.3 mg/mL | Yes | % Survival ([2]; at 2.1 mg/kg/day): 0% at 2.1 mg/kg/day
CCOP(=O)(NCC(F)=C1CCCN(c2c(F)cc3c(=O)c(C(=O)[O-])cn(C4CC4)c3c2OC)C1)OCC.[Na+] [Compound 13, 1-Cyclopropyl-7-{3-[2-(diethoxy-phosphorylamino)-1-fluoro-ethylidene]-piperidin-1-yl}-6-fluoro-8-methoxy-4-oxo-1,4-dihydro-quinoline-3-carboxylic acid sodium salt] | – | – | – | – | % Survival ([2]; at 3.8 mg/kg/day): 12.5% at 3.8 mg/kg/day; solubility at 24 h ([4]; thermodynamic from solid): < 3.3 mg/mL; solubility ([4]; pH 7.8, aqueous buffer, thermodynamic from solid): 1.8 mg/mL
COc1c(N2CCC/C(=C(\F)CNC(=O)[C@H](C)NC(=O)[C@H](C)N)C2)c(F)cc2c(=O)c(C(=O)O)cn(C3CC3)c12.Cl [Compound 2, 7-(3-{2-[(2S)-2-((2S)-2-Amino-propionylamino)-propionylamino]-1-fluoro-ethylidene}-piperidin-1-yl)-1-cyclopropyl-6-fluoro-8-methoxy-4-oxo-1,4-dihydro-quinoline-3-carboxylic acid hydrochloride] | > 14.9 mg/kg | 2.6 mg/kg | < 3.3 mg/mL | No | –
COc1c(N2CCC/C(=C(\F)CNC(=O)[C@@H](N)Cc3ccccc3)C2)c(F)cc2c(=O)c(C(=O)O)cn(C3CC3)c12.Cl [Compound 3, 7-{3-[2-((2S)-2-Amino-3-phenyl-propionylamino)-1-fluoro-ethylidene]-piperidin-1-yl}-1-cyclopropyl-6-fluoro-8-methoxy-4-oxo-1,4-dihydro-quinoline-3-carboxylic acid hydrochloride] | > 14.8 mg/kg | 1.4 mg/kg | < 3.3 mg/mL | No | –
